According to paper PMC11741150, “Synthesis and In Vitro Antileishmanial Efficacy of Novel Ethylene Glycol Analogues of Benzothiadiazine‐1,1‐dioxide” (Chemistry & Biodiversity, 2024):
Entries after “also recorded” stand apart in the source; their conditions may differ. Like-named read-outs stand apart in the source and are kept apart here.

Assays:
[1] = test system: Leishmania donovani (strain 9515 (MHOM/IN/95/9515)) promastigotes; assay: Antipromastigote resazurin assay; type: cell-based; conditions: for IC50: promastigotes, maximum concentration 2 mM, ±standard deviation, read-out: L. donovani 9515 antipromastigote IC50; for inhibition at 10 µM: L. donovani strain 9515 promastigotes, read-out: Antipromastigote growth inhibition (%)
Description: The antipromastigote activity of synthesised compounds was evaluated using a modified method of the resazurin assay[45, 46] against two Leishmania strains.
Leishmania donovani (strain 9515 (MHOM/IN/95/9515)) and L. major (strain NIH S (MHOM/SN/74/Seidman)) promastigotes were cultured in M199 with Hank's salts and 0.68 mM L‐glutamine (Sigma Aldrich) supplemented with 0.0005 % hemin, 0.0001 % biotin, 0.1 mM adenine (Sigma Aldrich), 10 % fetal bovine serum, 50 U/mL Penicillin/Streptomycin solution, 4.2 mM sodium bicarbonate and 25 mM Hepes buffer. The promastigotes were maintained at an adjusted pH of 7.3–7.4 growth medium at 26 °C. […] Amphothericin B (10 μM) served as the standard antileishmanial drug and parasite‐free growth medium was included as the blank. The plates were incubated for 48 hours at 26 °C in humidified environment.
Following the initial incubation, 50 μL of resazurin solution (0.01 % in PBS) was added to each well and the plates underwent further incubation at 26 °C for 24 hours in the dark. A Thermofisher Scientific's GO Multiscan plate reader was used to measure absorbance at 570 nm and 600 nm. SkanIt 4.0 Research Edition software was used to perform the data analysis for every biological replicate. Background absorbance (600 nm) was subtracted from the 570 nm absorbance data and the mean absorbance was computed. The cell viability and data analysis were performed as indicated in the cytotoxicity assay.

[2] = test system: L. donovani strain 9515 intramacrophage amastigotes; assay: Intramacrophage antileishmanial growth inhibition assay; type: cell-based; conditions: Leishmania donovani, read-out: Anti‐amastigote growth inhibition (%)
Description: (§1) A modified resazurin assay[47, 48] and the two Leishmania strains were also used to assess the efficacy of synthesised compounds against intramacrophage parasites.
(§2) Human monocytic leukemia (THP‐1) cells were cultured in RPMI 1640 medium with L‐glutamine (Sigma Aldrich) supplemented with, 1 % penicillin/streptomycin solution (Lonza), 10 % fetal bovine serum (FBS; Thermofisher Scientific) and 2 g/L sodium bicarbonate (Sigma Aldrich). The cells were maintained in a humidified environment at 37 °C and 5 % CO2.
(§3) For the intramacrophage assay, a 500 000 cells/mL THP‐1 cell suspension was prepared, 25 ng/mL phorbol 12‐myristate 13‐acetate (PMA) added and the suspension seeded in 96 well plates (Nunc, Thermofisher Scientific) at 200 μL/well. Cell‐free growth medium was included as the blank. The plates were incubated for 48 hours in a humidified environment at 37 °C and 5 % CO2 to encourage the differentiation of the suspended cells to adherent macrophages.
(§4) To eliminate non‐adherent cells after the PMA treatment, the plates were carefully washed once with warm PBS. Then, a premade promastigote suspension ([…]) was added. The suspension consisted of stationary phase promastigotes in THP‐1 cell growth medium, with a multiplicity of infection (MOI) of 30 : 1. Parasite‐free medium was also added to selected THP‐1 cell‐containing wells to serve as parasite blank. The plates were thoroughly rinsed four times with warm PBS to get rid of extracellular parasites after being cultured for 24 hours to encourage macrophage infection. The cells were then treated with 160 μL of growth medium and 40 μL of either solvent (parasite blank and negative control with parasites) or 40 μL of compound solutions. For a dual‐point activity screening, 10 μM and 2 mM of compound were prepared in separate plates. Amphothericin B (10 μM) served as the standard antileishmanial drug. The plates were incubated for 72 hours in a humidified environment at 37 °C and 5 % CO2.
(§5) For the plates treated with 10 μM of compound, any serum and extracellular promastigotes that remained were carefully removed from the wells by rinsing with warm PBS. The wells were then treated with 20 μL of 0.05 % sodium dodecyl sulphate (SDS; Sigma Aldrich) in PBS for 30 sec to lyse the macrophages. Lysis was terminated with the addition of 180 μL promastigote growth medium with 10 % FBS. For the resazurin assay, 10 μL of resazurin solution (0.025 % in PBS) was added to each well and the plates were further incubated at 37 °C in for 72 hours in the dark to measure amastigote recovery to proliferative promastigotes.
(§6) A Thermofisher Scientific's GO Multiscan plate reader was used to measure absorbance at 570 nm and 600 nm. SkanIt 4.0 Research Edition software was used to perform the data analysis for every biological replicate. Background absorbance (600 nm) was subtracted from the 570 nm absorbance data and the mean absorbance was computed.
(§7) For the activity screening, the following formula was used to determine growth inhibition percentage: Growthinhibition%=100-[(ΔAbssample-ΔAbsblank)/(ΔAbsnegcontrol-ΔAbsblank)X100]

[3] = test system: L. major (strain NIH S (MHOM/SN/74/Seidman)) promastigotes; assay: Antipromastigote resazurin assay; type: cell-based, Leishmania major; conditions: for inhibition at 10 µM: L. major strain IR‐173 (as headed) promastigotes, read-out: Antipromastigote growth inhibition (%); for IC50: promastigotes, maximum concentration 2 mM, ±standard deviation
[4] = test system: L. major intramacrophage amastigotes; assay: Intramacrophage antileishmanial growth inhibition assay; type: cell-based, Leishmania major; conditions: for inhibition at 10 µM: Leishmania major, L. major strain IR‐173 (as headed) intramacrophage amastigotes, read-out: Anti‐amastigote growth inhibition (%); for host cell and parasite death in L. major anti‐amastigote screening: 2 mM of compound, L. major only
Description: as §1, §2, §3, §4, §5
Any remaining extracellular promastigotes were afterwards carefully removed from the wells by rinsing with warm PBS. The wells were then treated with 50 μL of resazurin solution (0.01 % in PBS) and the plates were further incubated at 37 °C for 4 hours in the dark to assess host cell viability.
as §6, §7

Vero cells = assay: Cytotoxicity resazurin assay; type: cell-based; conditions: Chlorocebus sabaeus, 48 hours, ±standard deviation, maximum concentration 2 mM
Description: The cytotoxicity of the synthesised compounds was evaluated using the resazurin assay. The assay involves live cells converting oxidized blue resazurin dye to pink, highly fluorescent resorufin through irreversible enzymatic reduction.[44] This non‐toxic reagent is a useful instrument for determining drug toxicity and cell growth.
Dulbecco's modified Eagle's medium (DMEM) with high glucose (Separations) supplemented with 1 % L‐glutamine, non‐essential amino acids, and penicillin‐streptomycin (Sigma Aldrich), and 10 % fetal bovine serum (Thermofisher Scientific) was used to cultivate Vero cells. The cells were kept at 37 °C and 5 % CO2 in a humidified environment. For the assay, 96 well plates were prepared by pipetting 100 μL of cell suspension (60 000 cells/mL) per well and incubating the plates for 24 hours. The cells were then treated with seven two‐fold concentration dilutions of: (1) 1 μM emetine dihydrochloride (Sigma Aldrich) solution (positive control); (2) 2 mM experimental compound solutions. Cell‐free growth medium was included as a blank. The treated plates were incubated for 48 hours.
To initiate the resazurin assay, 50 μL of sterile‐filtered resazurin sodium salt (Sigma Aldrich) solution (0.01 % in phosphate‐buffered saline (PBS)) was added to the prepared plates and then incubated for 2 hours. A Thermofisher Scientific's GO Multiscan plate reader was used to measure the absorbance at 570 and 600 nm. SkanIt 4.0 Research Edition software was used to perform the data analysis for every biological replicate. After subtracting background absorbance (600 nm) from the 570 nm absorbance data, the mean absorbance was computed, and the percentage of viable cells was estimated using the formula below: Cellviability%=(ΔAbssample-ΔAbsblank)/(ΔAbsnegcontrol-ΔAbsblank)X100
GraphPad Prism 5 was used to calculate the IC50 and Z‐score for each compound's biological replicate. The mean IC50 of the biological replicates and standard deviation (SD) was calculated to determine the final IC50 of each compound.

SMILES | IC50 ([1]; Leishmania donovani) [µM] | inhibition at 10 µM ([1]; Leishmania donovani) [%] | inhibition at 10 µM [2] [%] | inhibition at 10 µM ([3]; Leishmania major) [%] | inhibition at 10 µM [4] [%] | IC50 (Vero cells) [µM] | IC50 ([3]; Leishmania major) [µM] | SI1: Selectivity index=IC50 Vero/L. donovani 9515 antipromastigote IC50 [1] | SI2: Selectivity index=IC50 Vero/L. major antipromastigote IC50 [3] | host cell and parasite death in L. major anti‐amastigote screening [4] | IC50 [1] [µM] | IC50 [3] [µM]
C[C@@H]1[C@H](O)[C@@H](C)/C=C/C=C/C=C/C=C/C=C/C=C/C=C/[C@H](O[C@@H]2O[C@H](C)[C@@H](O)[C@H](N)[C@@H]2O)C[C@@H]2O[C@](O)(C[C@@H](O)C[C@@H](O)[C@H](O)CC[C@@H](O)C[C@@H](O)CC(=O)O[C@H]1C)C[C@H](O)[C@H]2C(=O)O [AmB, Amphotericin B, reference compound] | 0.02 | 100 | 100 | 100 | 100 | 57.8 ± 3.22 | – | – | – | – | – | –
COCCN1C=Nc2ccccc2S1(=O)=O [Compound 3, 2‐(2‐Methoxyethyl)‐2H‐benzo[e][1,2,4]thiadiazine‐1,1‐dioxide] | 482 ± 7.57 | 2 | 0 | 0 | 0 | 502 ± 152 | 701 ± 40.8 | – | – | – | – | –
COCCOCCN1C=Nc2ccccc2S1(=O)=O [Compound 4, 2‐[2‐(2‐Methoxyethoxy)ethyl]‐2H‐benzo[e][1,2,4]thiadiazine‐1,1‐dioxide] | 701.6 ± 4.17 | 0 | 0 | 0 | 0 | 988 ± 10.6 | 919 ± 22.3 | – | – | – | – | –
COCCOCCOCCN1C=Nc2ccccc2S1(=O)=O [Compound 5, 2‐{2‐[2‐(2‐Methoxyethoxy)ethoxy]ethyl}‐2H‐benzo[e][1,2,4]thiadiazine‐1,1‐dioxide] | 830 ± 10.5 | 5 | 0 | 0 | 0 | 999 ± 16.8 | – | 1.20 | 0.89 | both host cell and parasite death | – | –
CCOCCN1C=Nc2ccccc2S1(=O)=O [Compound 6, 2‐(2‐Ethoxyethyl)‐2H‐benzo[e][1,2,4]thiadiazine‐1,1‐dioxide] | 333 ± 45.1 | 2 | 0 | 0 | 0 | 470 ± 225 | 586 ± 47 | – | – | – | – | –
CCOCCOCCN1C=Nc2ccccc2S1(=O)=O [Compound 7, 2‐[2‐(2‐Ethoxyethoxy)ethyl]‐2H‐benzo[e][1,2,4]thiadiazine‐1,1‐dioxide] | 426 ± 34.7 | 0 | 0 | 0 | 0 | 727 ± 61.7 | 491 ± 28.6 | 1.71 | 1.48 | both host cell and parasite death; also recorded: killed both parasite and host cell | – | –
CCOCCOCCOCCN1C=Nc2ccccc2S1(=O)=O [Compound 8, 2‐{2‐[2‐(2‐Ethoxyethoxy)ethoxy]ethyl}‐2H‐benzo[e][1,2,4]thiadiazine‐1,1‐dioxide] | 809 ± 20.2 | 3 | 0 | 0 | 0 | 922 ± 93.9 | 909 ± 124 | – | – | – | – | –
O=S1(=O)c2ccccc2N=CN1CCOc1ccccc1 [Compound 9, 2‐(2‐Phenoxyethyl)‐2H‐benzo[e][1,2,4]thiadiazine‐1,1‐dioxide] | 153 | 7 | 0 | 58 | 0 | 975.3 ± 3.68 | 103 | 6.36 | 9.41 | both host cell and parasite death; also recorded: killed both parasite and host cell | 153 ± 7.92 | 104 ± 4.53
O=S1(=O)c2ccccc2N=CN1CCOc1ccc(Cl)cc1 [Compound 11, 2‐[2‐(4‐Chlorophenoxy)ethyl]‐2H‐benzo[e][1,2,4]thiadiazine‐1,1‐dioxide] | 290 ± 21.4 | 3 | 0 | 0 | 0 | 747 ± 188 | 300 ± 3.68 | 2.57 | 2.49 | killed both parasite and host cell | – | –
O=[N+]([O-])c1ccc(OCCN2C=Nc3ccccc3S2(=O)=O)cc1 [Compound 12, 2‐[2‐(4‐Nitrophenoxy)ethyl]‐2H‐benzo[e][1,2,4]thiadiazine‐1,1‐dioxide] | 411 ± 27.9 | 9 | 0 | 0 | 0 | 667 ± 58 | 783 ± 408 | 1.62 | 0.85 | killed both parasite and host cell | – | –
CC[C@H]1CN2CCc3cc(OC)c(OC)cc3[C@@H]2C[C@@H]1C[C@H]1NCCc2cc(OC)c(OC)cc21 [Em, emetine, reference compound] | – | – | – | – | – | 0.08 ± 0.01 | – | – | – | – | – | –
